Like-named read-outs stand apart in the source and are kept apart here.
Tests used:
[1] = In vitro reverse iontophoretic extraction of mannitol and sodium (Example 3, first experiment)
Experimental: The anode was placed in the sub-dermal, “donor” chamber, which contained a physiological pH 7.4 buffer (25 mM Tris/TrisHCl+133 mM NaCl) to which the analyte mannitol was added.
In a first experiment, mannitol concentration was 5 mM for the first three hours of experiment and was then increased to 10 mM for a subsequent period of three hours.
(§1) To facilitate the analytical chemistry, the donor solutions were spiked with ^14C-labeled mannitol.
The cathodal (collection) chamber, which contacted the outer surface of the skin contained a 25 mM Tris/TrisHCl buffer at pH 7.4.
(§2) During the first 3-hour period, the entire content of the cathode solution was withdrawn every 60 minutes and the chamber was refilled with fresh buffer.
During the second 3-hour period, the 5 mM mannitol donor solution was replaced with 10 mM mannitol, and the cathodal chamber was then sampled every 30 minutes.

[2] = In vitro reverse iontophoretic extraction of glucose and sodium (Example 5); format: in vitro ADME, pig; conditions: subdermal glucose 10 mM
Experimental: The anode was placed in the sub-dermal, “donor” chamber, which contained a physiological pH 7.4 buffer (25 mM Tris/TrisHCl+133 mM NaCl) to which the analyte glucose was added at a concentration of 10 mM.
To facilitate the analytical chemistry, the donor solutions were spiked with tritiated glucose.
(§3) The cathodal (collection) chamber, which contacted the outer surface of the skin, contained a 25 mM Tris/TrisHCl buffer at pH 7.4.
The experimental design was identical to that in FIG. 11, with the exception that glucose spiked with tritiated glucose replaced mannitol spiked with ^14C-labeled mannitol.
During this period, the entire content of the cathode solution was withdrawn every 60 minutes and the chamber was refilled with fresh buffer.

[3] = human volunteer, 0.3 mA/cm^2, 5.5 hours, 15 min samples, food ingested
[4] = in vivo, 4 mA for 5 minutes, 4.5 cm^2, lithium nitrate electrolyte; cited from earlier work
[5] = subdermal lactate 1.74 mM, ammonium 1.56 mM
[6] = In vitro reverse iontophoretic extraction of mannitol and sodium (Example 3, second experiment)
Experimental: In a second experiment, performed under identical conditions to the first (see FIG. 11), mannitol concentration was 5 mM for the first three hours of experiment, it was then reduced to 3 mM for a subsequent period of one hour and then increased to 10 mM for a subsequent period of one hour.
as §2
During the second 1-hour period, the 5 mM mannitol donor solution was replaced with 3 mM mannitol, and the cathodal chamber was then sampled every 30 minutes.
During the third 1-hour period, the 3 mM mannitol donor solution was replaced with 10 mM mannitol, and the cathodal chamber was then sampled every 30 minutes.

[7] = In vitro reverse iontophoretic extraction of mannitol and sodium with varied sodium level (Example 4)
Experimental: The anode was placed in the sub-dermal, “donor” chamber, which contained a physiological pH 7.4 buffer (25 mM Tris/TrisHCl+4 mM KCl).
Both the concentration of the analyte of interest and the internal standard were modified during the experiment.
as §1, §3, §2
During the final 1-hour period, the donor solution was replaced with 5 mM mannitol/ 133 mM NaCl, and the cathodal chamber was then sampled every 30 minutes.

[8] = subdermal mannitol 5 mM, 60 min
[9] = subdermal mannitol 5 mM, 120 min
[10] = subdermal mannitol 5 mM, 180 min
[11] = subdermal mannitol 10 mM, 270 min
[12] = subdermal mannitol 10 mM, 300 min

Sodium^+ flux [1, 8]: 7.9 ± 0.5 μmol · h^−1 · cm^−2
Sodium^+ flux [1, 9]: 9.7 ± 0.6 μmol · h^−1 · cm^−2
Sodium^+ flux [1, 10]: 10.1 ± 0.4 μmol · h^−1 · cm^−2
Sodium^+ flux ([1]; subdermal mannitol 10 mM, 210 min): 10.3 ± 0.5 μmol · h^−1 · cm^−2
Sodium^+ flux ([1]; subdermal mannitol 10 mM, 240 min): 10.4 ± 0.6 μmol · h^−1 · cm^−2
Sodium^+ flux [1, 11]: 10.3 ± 0.4 μmol · h^−1 · cm^−2
Sodium^+ flux [1, 12]: 10.6 ± 0.3 μmol · h^−1 · cm^−2
Sodium^+ flux ([1]; subdermal mannitol 10 mM, 330 min): 10.7 ± 0.3 μmol · h^−1 · cm^−2
Sodium^+ flux ([1]; subdermal mannitol 10 mM, 360 min): 10.5 ± 0.6 μmol · h^−1 · cm^−2
Sodium^+ flux ([2]; 60 min): 8.7 ± 0.6 μmol · h^−1 · cm^−2
Sodium^+ flux ([2]; 120 min): 9.8 ± 0.4 μmol · h^−1 · cm^−2
Sodium^+ flux ([2]; 180 min): 10.1 ± 0.3 μmol · h^−1 · cm^−2
Sodium^+ flux ([2]; 240 min): 10.0 ± 0.3 μmol · h^−1 · cm^−2
Sodium^+ flux ([2]; 300 min): 10.2 ± 0.3 μmol · h^−1 · cm^−2
Sodium^+ flux ([2]; 360 min): 10.2 ± 0.3 μmol · h^−1 · cm^−2
Iontophoretically extracted flux over the experiment [3]: remained effectively constant
Deduced transport number (×100) ([5]; 3 h): 67.72 ± 7.98 ×100
Deduced transport number (×100) ([5]; 5 h): 72.07 ± 1.07 ×100
Sodium^+ flux ([6]; subdermal mannitol 3 mM, 210 min): 10.9 ± 0.7 μmol · h^−1 · cm^−2
Sodium^+ flux ([6]; subdermal mannitol 3 mM, 240 min): 9.7 ± 0.5 μmol · h^−1 · cm^−2
Sodium^+ flux [6, 8]: 8.8 ± 0.7 μmol · h^−1 · cm^−2
Sodium^+ flux [6, 9]: 10.2 ± 0.7 μmol · h^−1 · cm^−2
Sodium^+ flux [6, 10]: 10.4 ± 0.7 μmol · h^−1 · cm^−2
Sodium^+ flux [6, 11]: 9.4 ± 0.6 μmol · h^−1 · cm^−2
Sodium^+ flux [6, 12]: 9.3 ± 0.4 μmol · h^−1 · cm^−2
Sodium^+ flux ([7]; subdermal [Mannitol]/[Na^+] 5/133 mM (last hour), 330 min): 11.2 ± 1.2 μmol · h^−1 · cm^−2
Sodium^+ flux ([7]; subdermal [Mannitol]/[Na^+] 5/133 mM (last hour), 360 min): 11.4 ± 0.3 μmol · h^−1 · cm^−2
Sodium^+ flux ([7]; subdermal [Mannitol]/[Na^+] 5/133 mM, 60 min): 8.4 ± 0.8 μmol · h^−1 · cm^−2
Sodium^+ flux ([7]; subdermal [Mannitol]/[Na^+] 5/133 mM, 120 min): 10.7 ± 0.4 μmol · h^−1 · cm^−2
Sodium^+ flux ([7]; subdermal [Mannitol]/[Na^+] 5/133 mM, 180 min): 11.0 ± 0.3 μmol · h^−1 · cm^−2
Structure (SMILES): [Na+] [Na^+, sodium]
Concentration in the cathode chamber after current passage [4]: ~35 μEq/L
